# Measured values reported in ChEMBL document CHEMBL1125711, “Flavins as potential antimalarials. 2. 3-Methyl-10-(substituted-phenyl) flavins” (J Med Chem, 1991).
# Tested on: Mus musculus
# Test: Increase in mean survival days was determined in mice after ip administration of 20 mg/kg
# Format: functional
# Conditions: route intraperitoneal
row,Structure (SMILES),Mean survival days [days]
1,CCc1ccc(-n2c3nc(=O)n(C)c(=O)c-3nc3ccccc32)cc1,0.3
2,Cn1c(=O)nc2n(-c3ccc(F)c(F)c3)c3ccccc3nc-2c1=O,-0.5
3,COc1cccc(-n2c3nc(=O)n(C)c(=O)c-3nc3ccccc32)c1,0
4,Cn1c(=O)nc2n(-c3ccc(C(F)(F)F)cc3)c3ccccc3nc-2c1=O,0
5,Cc1cc(Cl)ccc1-n1c2nc(=O)n(C)c(=O)c-2nc2ccccc21,1.2

# Tested on: Mus musculus
# Test: Increase in mean survival days was determined in mice after ip administration of 30 mg/kg
# Format: functional
# Conditions: route intraperitoneal
row,Structure (SMILES),Mean survival days [days]
1,Cc1ccc(-n2c3nc(=O)n(C)c(=O)c-3nc3ccccc32)cc1,0.2
2,CCc1ccc(-n2c3nc(=O)n(C)c(=O)c-3nc3ccccc32)cc1,0
3,Cn1c(=O)nc2n(-c3ccc(C(=O)O)cc3)c3ccccc3nc-2c1=O,0.2
4,Cn1c(=O)nc2n(-c3ccc(F)c(F)c3)c3ccccc3nc-2c1=O,0
5,Cc1ccc(-n2c3nc(=O)n(C)c(=O)c-3nc3ccccc32)cc1Cl,0
6,COc1cccc(-n2c3nc(=O)n(C)c(=O)c-3nc3ccccc32)c1,0
7,CN(C)c1ccc(-n2c3nc(=O)n(C)c(=O)c-3nc3ccccc32)cc1,0
8,Cn1c(=O)nc2n(-c3ccc(C(F)(F)F)cc3)c3ccccc3nc-2c1=O,2
9,Cn1c(=O)nc2n(-c3ccc(Cl)c(Cl)c3)c3ccccc3nc-2c1=O,0
10,Cn1c(=O)nc2n(-c3ccc(O)cc3)c3ccccc3nc-2c1=O,0.2
11,Cn1c(=O)nc2n(-c3cccc(Cl)c3)c3ccccc3nc-2c1=O,0

# Tested on: Mus musculus
# Test: Antimalarial activity was evaluated against Plasmodium vinckei V52 after intraperitoneal administration at dose 70 mg/kg
# Format: functional
# Conditions: not given
row,Structure (SMILES),Cured [%]
1,Cc1ccc(-n2c3nc(=O)n(C)c(=O)c-3nc3ccccc32)cc1,0
2,Cn1c(=O)nc2n(-c3ccc(Cl)c(Cl)c3)c3ccccc3nc-2c1=O,0

# Tested on: Mus musculus
# Test: Antimalarial activity was evaluated against Plasmodium vinckei V52 after intraperitoneal administration at dose 50 mg/kg
# Format: functional
# Conditions: not given
row,Structure (SMILES),Cured [%]
1,Cc1ccc(-n2c3nc(=O)n(C)c(=O)c-3nc3ccccc32)cc1,0
2,Cn1c(=O)nc2n(-c3ccc(C(F)(F)F)cc3)c3ccccc3nc-2c1=O,100
3,Cn1c(=O)nc2n(-c3cccc(Cl)c3)c3ccccc3nc-2c1=O,0

# Tested on: Mus musculus
# Test: Increase in mean survival days was determined in mice after ip administration of 70 mg/kg; toxic
# Format: functional
# Conditions: route intraperitoneal
row,Structure (SMILES),Mean survival days [days]
1,Cn1c(=O)nc2n(-c3ccc(F)c(F)c3)c3ccccc3nc-2c1=O,-1
2,Cn1c(=O)nc2n(-c3ccccc3Cl)c3ccccc3nc-2c1=O,-2

# Tested on: Mus musculus
# Test: Increase in mean survival days was determined in mice after ip administration of 10 mg/kg
# Format: functional
# Conditions: route intraperitoneal
row,Structure (SMILES),Mean survival days [days]
1,Cc1ccc(-n2c3nc(=O)n(C)c(=O)c-3nc3ccccc32)cc1,0
2,CCc1ccc(-n2c3nc(=O)n(C)c(=O)c-3nc3ccccc32)cc1,0.2
3,Cn1c(=O)nc2n(-c3ccc(C(=O)O)cc3)c3ccccc3nc-2c1=O,0
4,Cn1c(=O)nc2n(-c3ccc(F)c(F)c3)c3ccccc3nc-2c1=O,0
5,Cc1ccc(-n2c3nc(=O)n(C)c(=O)c-3nc3ccccc32)cc1Cl,0
6,Cn1c(=O)nc2n(-c3ccccc3Cl)c3ccccc3nc-2c1=O,0
7,COc1cccc(-n2c3nc(=O)n(C)c(=O)c-3nc3ccccc32)c1,0
8,CN(C)c1ccc(-n2c3nc(=O)n(C)c(=O)c-3nc3ccccc32)cc1,0
9,Cn1c(=O)nc2n(-c3ccc(C(F)(F)F)cc3)c3ccccc3nc-2c1=O,0
10,Cn1c(=O)nc2n(-c3ccc(Cl)c(Cl)c3)c3ccccc3nc-2c1=O,0
11,Cn1c(=O)nc2n(-c3ccc(O)cc3)c3ccccc3nc-2c1=O,0
12,Cc1cc(Cl)ccc1-n1c2nc(=O)n(C)c(=O)c-2nc2ccccc21,0
13,Cn1c(=O)nc2n(-c3cccc(Cl)c3)c3ccccc3nc-2c1=O,0

# Tested on: Plasmodium vinckei vinckei
# Test: Antimalarial activity against Plasmodium vinckei V52 on 10 mg/kg intraperitoneal dose
# Format: functional
# Conditions: not given
row,Structure (SMILES),Cured [%]
1,Cc1ccc(-n2c3nc(=O)n(C)c(=O)c-3nc3ccccc32)cc1,0
2,CCc1ccc(-n2c3nc(=O)n(C)c(=O)c-3nc3ccccc32)cc1,0
3,Cn1c(=O)nc2n(-c3ccc(C(=O)O)cc3)c3ccccc3nc-2c1=O,0
4,Cn1c(=O)nc2n(-c3ccc(F)c(F)c3)c3ccccc3nc-2c1=O,0
5,Cc1ccc(-n2c3nc(=O)n(C)c(=O)c-3nc3ccccc32)cc1Cl,0
6,Cn1c(=O)nc2n(-c3ccccc3Cl)c3ccccc3nc-2c1=O,0
7,COc1cccc(-n2c3nc(=O)n(C)c(=O)c-3nc3ccccc32)c1,0
8,CN(C)c1ccc(-n2c3nc(=O)n(C)c(=O)c-3nc3ccccc32)cc1,0
9,Cn1c(=O)nc2n(-c3ccc(C(F)(F)F)cc3)c3ccccc3nc-2c1=O,0
10,Cn1c(=O)nc2n(-c3ccc(Cl)c(Cl)c3)c3ccccc3nc-2c1=O,0
11,Cn1c(=O)nc2n(-c3ccc(O)cc3)c3ccccc3nc-2c1=O,0
12,Cc1cc(Cl)ccc1-n1c2nc(=O)n(C)c(=O)c-2nc2ccccc21,0
13,Cn1c(=O)nc2n(-c3cccc(Cl)c3)c3ccccc3nc-2c1=O,0

# Tested on: Plasmodium vinckei vinckei
# Test: Antimalarial activity against Plasmodium vinckei V52 on 30 mg/kg intraperitoneal dose
# Format: functional
# Conditions: not given
row,Structure (SMILES),Cured [%]
1,Cc1ccc(-n2c3nc(=O)n(C)c(=O)c-3nc3ccccc32)cc1,0
2,CCc1ccc(-n2c3nc(=O)n(C)c(=O)c-3nc3ccccc32)cc1,0
3,Cn1c(=O)nc2n(-c3ccc(C(=O)O)cc3)c3ccccc3nc-2c1=O,0
4,Cn1c(=O)nc2n(-c3ccc(F)c(F)c3)c3ccccc3nc-2c1=O,0
5,Cn1c(=O)nc2n(-c3ccccc3Cl)c3ccccc3nc-2c1=O,0
6,COc1cccc(-n2c3nc(=O)n(C)c(=O)c-3nc3ccccc32)c1,0
7,Cn1c(=O)nc2n(-c3ccc(C(F)(F)F)cc3)c3ccccc3nc-2c1=O,80
8,Cc1cc(Cl)ccc1-n1c2nc(=O)n(C)c(=O)c-2nc2ccccc21,0
9,Cn1c(=O)nc2n(-c3cccc(Cl)c3)c3ccccc3nc-2c1=O,0

# Tested on: Plasmodium vinckei vinckei
# Test: Antimalarial activity against Plasmodium vinckei V52 after 20 mg/kg intraperitoneal dose
# Format: functional
# Conditions: not given
row,Structure (SMILES),Cured [%]
1,CCc1ccc(-n2c3nc(=O)n(C)c(=O)c-3nc3ccccc32)cc1,0
2,Cn1c(=O)nc2n(-c3ccc(F)c(F)c3)c3ccccc3nc-2c1=O,0
3,Cc1ccc(-n2c3nc(=O)n(C)c(=O)c-3nc3ccccc32)cc1Cl,0
4,COc1cccc(-n2c3nc(=O)n(C)c(=O)c-3nc3ccccc32)c1,0
5,CN(C)c1ccc(-n2c3nc(=O)n(C)c(=O)c-3nc3ccccc32)cc1,0
6,Cn1c(=O)nc2n(-c3ccc(C(F)(F)F)cc3)c3ccccc3nc-2c1=O,0
7,Cn1c(=O)nc2n(-c3ccc(Cl)c(Cl)c3)c3ccccc3nc-2c1=O,0
8,Cn1c(=O)nc2n(-c3ccc(O)cc3)c3ccccc3nc-2c1=O,0
9,Cc1cc(Cl)ccc1-n1c2nc(=O)n(C)c(=O)c-2nc2ccccc21,0

# Tested on: Mus musculus
# Test: Antimalarial activity was evaluated against Plasmodium vinckei vinckei V52 after intraperitoneal administration at dose 50 mg/kg
# Format: functional
# Conditions: not given
row,Structure (SMILES),Cured [%]
1,Cn1c(=O)nc2n(-c3ccc(Cl)c(Cl)c3)c3ccccc3nc-2c1=O,0

# Tested on: Plasmodium vinckei vinckei
# Test: Increase in mean survival days of Plasmodium inoculated mice (Mus musculus) after 70 mg/Kg intraperitoneal dose
# Format: functional
# Conditions: not given
row,Structure (SMILES),Mean survival days [days]
1,Cc1ccc(-n2c3nc(=O)n(C)c(=O)c-3nc3ccccc32)cc1,0
2,CCc1ccc(-n2c3nc(=O)n(C)c(=O)c-3nc3ccccc32)cc1,-0.4
3,Cn1c(=O)nc2n(-c3ccc(C(=O)O)cc3)c3ccccc3nc-2c1=O,-0.2
4,Cc1ccc(-n2c3nc(=O)n(C)c(=O)c-3nc3ccccc32)cc1Cl,0
5,COc1cccc(-n2c3nc(=O)n(C)c(=O)c-3nc3ccccc32)c1,0
6,CN(C)c1ccc(-n2c3nc(=O)n(C)c(=O)c-3nc3ccccc32)cc1,0
7,Cn1c(=O)nc2n(-c3ccc(Cl)c(Cl)c3)c3ccccc3nc-2c1=O,0
8,Cn1c(=O)nc2n(-c3ccc(O)cc3)c3ccccc3nc-2c1=O,0

# Tested on: Mus musculus
# Test: Antimalarial activity was evaluated against Plasmodium vinckei V52 after intraperitoneal administration at dose 60 mg/kg
# Format: functional
# Conditions: not given
row,Structure (SMILES),Cured [%]
1,Cn1c(=O)nc2n(-c3ccc(C(F)(F)F)cc3)c3ccccc3nc-2c1=O,100
2,Cn1c(=O)nc2n(-c3cccc(Cl)c3)c3ccccc3nc-2c1=O,50

# Tested on: Plasmodium vinckei vinckei
# Test: Antimalarial activity against Plasmodium vinckei V52 on 70 mg/kg intraperitoneal dose
# Format: functional
# Conditions: not given
row,Structure (SMILES),Cured [%]
1,CCc1ccc(-n2c3nc(=O)n(C)c(=O)c-3nc3ccccc32)cc1,0
2,Cn1c(=O)nc2n(-c3ccc(C(=O)O)cc3)c3ccccc3nc-2c1=O,0
3,Cn1c(=O)nc2n(-c3ccc(F)c(F)c3)c3ccccc3nc-2c1=O,0
4,Cc1ccc(-n2c3nc(=O)n(C)c(=O)c-3nc3ccccc32)cc1Cl,0
5,Cn1c(=O)nc2n(-c3ccccc3Cl)c3ccccc3nc-2c1=O,0
6,COc1cccc(-n2c3nc(=O)n(C)c(=O)c-3nc3ccccc32)c1,0
7,CN(C)c1ccc(-n2c3nc(=O)n(C)c(=O)c-3nc3ccccc32)cc1,0
8,Cn1c(=O)nc2n(-c3ccc(C(F)(F)F)cc3)c3ccccc3nc-2c1=O,100
9,Cn1c(=O)nc2n(-c3ccc(O)cc3)c3ccccc3nc-2c1=O,0
10,Cn1c(=O)nc2n(-c3cccc(Cl)c3)c3ccccc3nc-2c1=O,100

# Tested on: Mus musculus
# Test: Increase in mean survival days was determined in mice after ip administration of 30 mg/kg; toxic
# Format: functional
# Conditions: route intraperitoneal
row,Structure (SMILES),Mean survival days [days]
1,Cn1c(=O)nc2n(-c3ccccc3Cl)c3ccccc3nc-2c1=O,-0.3
2,Cc1cc(Cl)ccc1-n1c2nc(=O)n(C)c(=O)c-2nc2ccccc21,-2

# Tested on: Mus musculus
# Test: Antimalarial activity was evaluated against Plasmodium vinckei vinckei V52 after intraperitoneal administration at dose 25 mg/kg
# Format: functional
# Conditions: not given
row,Structure (SMILES),Cured [%]
1,Cc1cc(Cl)ccc1-n1c2nc(=O)n(C)c(=O)c-2nc2ccccc21,0

# Tested on: Mus musculus
# Test: Increase in mean survival days was determined in mice after ip administration of 50 mg/kg
# Format: functional
# Conditions: route intraperitoneal
row,Structure (SMILES),Mean survival days [days]
1,Cc1ccc(-n2c3nc(=O)n(C)c(=O)c-3nc3ccccc32)cc1,0.3
2,Cn1c(=O)nc2n(-c3ccc(Cl)c(Cl)c3)c3ccccc3nc-2c1=O,0
3,Cn1c(=O)nc2n(-c3cccc(Cl)c3)c3ccccc3nc-2c1=O,0.4

# Tested on: Mus musculus
# Test: Increase in mean survival days was determined in mice after ip administration of 25 mg/kg; toxic
# Format: functional
# Conditions: route intraperitoneal
row,Structure (SMILES),Mean survival days [days]
1,Cc1cc(Cl)ccc1-n1c2nc(=O)n(C)c(=O)c-2nc2ccccc21,-1.5

# Species on record: Mus musculus
# Test: Effective dose required to obtain a parasitaemia of 40% 48 hours after treatment in mice
# Format: functional
# Conditions: not given
row,Structure (SMILES),ED40 [µmol/kg]
1,CCc1ccc(-n2c3nc(=O)n(C)c(=O)c-3nc3ccccc32)cc1,281
2,Cc1ccc(-n2c3nc(=O)n(C)c(=O)c-3nc3ccccc32)cc1Cl,456
3,Cn1c(=O)nc2n(-c3ccc(C(F)(F)F)cc3)c3ccccc3nc-2c1=O,135

# Tested on: Mus musculus
# Test: Increase in mean survival days was determined in mice after ip administration of 60 mg/kg
# Format: functional
# Conditions: route intraperitoneal
row,Structure (SMILES),Mean survival days [days]
1,Cn1c(=O)nc2n(-c3cccc(Cl)c3)c3ccccc3nc-2c1=O,0.5
